Source: patent publication US20240016784A1, “Y BOX BINDING PROTEIN 1 INHIBITORS” (Oregon Health & Science University, priority 2020, published 2024)
pIC50: −log10 of the molar value.

Tests used:
[1] = test system: OVCAR4, OVCAR5 and ID8 cells; assay: Cell viability (MTT) assay, ovarian cancer cell lines; assay type: cell-based; details: 48 h of treatment
Excerpt: We tested the relationship between AzPs dose and the viability of human ovarian cancer cell lines and the ID8 murine ovarian cancer cell line.
FIG. 1A) Lead optimization of SU093 to obtain SU056. FIG. 1B) IC50 values of SU093 and SU056 on various ovarian cancer cells. Clonogenic survival of OC cells treated with SU093 or SU056. […] FIG. 1C) Representative colony formation from respective wells. FIG. 1D) Number of colonies formed after SU093 and SU056 treatment. […] FIG. 1F) Cell cycle distribution of propidium iodide (PI)-stained OVCAR8, SKOV3, and ID8 cells. […] FIG. 1G) Effects of SU093 and SU056 on apoptotic cell death analyzed by Annexin-FITC staining. […] FIG. 1H) Cell migration assay.

[2] = test system: Multidrug resistance 1 (MDR1, ABC pump mediated efflux); assay: Multidrug Resistance Assay (fluorometric MDR assay); assay type: cell-based; details: 2.5 μM for 12 h; six different OC cell lines
Description: Out of six targets identified, we selected proteins whose thermal shift is above 5° in the presence of SU056 for further study of protein expression after treatment. […] To study the in vivo effects of SU056 treatment, we analyzed ID8 tumor xenograft samples via immunohistochemistry (IHC). […] To identify the broader effects of SU056 on YB-1 and its downstream protein/activity in different ovarian cancer cell lines, we selected six different cell lines and treated them with SU056 (2.5 μM) for 12 h. Cells were analyzed for YB-1 and CD44 expression and Multidrug resistance 1 (MDR1, ABC pump mediated efflux). […] Finally, we tested the time kinetics and dose-dependent effects of SU056 on YB-1 expression. OVCAR4, OVCAR8, and SKOV3 cells were treated with SU056 (1, 2.5, and 5 μM) for 3, 6, 12, and 24 h and YB-1 expression was measured using YB-1 ELISA. […] 5 μM treatment for 24 h inhibited YB-1 completely (100%) in all three OC cells (FIG. 4E). […]
FIGS. 4A-4E: SU056 inhibits YB-1. […] FIG. 4C) Respective OC cells were treated with 2.5 μM SU056 for 12 h and YB-1 & CD44 expression and multidrug resistance activity was measured as described in the ‘method’ section. The % inhibition was calculated and compared to the control for the respective cell line. […]

[3] = test system: MDA-MB-231, MDA-MB-468 and SUT1151-PDX xenografts; assay: Tumor xenografts of TNBC models; assay type: in vivo, Mice; details: SU056 50 mg/kg, oral gavage
Description: FIGS. 13A-13I. […] Mice were subcutaneously injected with MDA-MB-231 (2×10^6 cells), MDA-MB-468 (5×10^6 cells) and patient derived xenograft SUT1151-PDX (2×10^6 cells) and drug treatment started when tumor reached 100 mm^3. Mice were given either vehicle (40% PEG in saline) or SU056 (50 mg/kg) through oral route using oral gavage. FIG. 13A) Tumor volume (MDA-MB-231) as a function of time. FIG. 13B) Tumor weight (MDA-MB-231) at the end of the study. FIG. 13C) Body weight (MDA-MB-231) as a function of time. FIG. 13D) Tumor volume (MDA-MB-468) as a function of time. FIG. 13E) Tumor weight (MDA-MB-468) at the end of the study. FIG. 13F) Body weight (MDA-MB-468) as a function of time. FIG. 13G) Representative images of tumor (MDA-MB-231) at the end of study. FIG. 13H) Representative images of tumor (MDA-MB-468) at the end of study. FIG. 13I) Tumor volume (SUT1151-PDX) as a function of time. FIG. 13B) Tumor weight (SUT1151-PDX) at the end of the study. FIG. 13C) Body weight (SUT1151-PDX) as a function of time.

EKVX = assay: NCI-60 cell line panel; assay type: cell-based; details: Homo sapiens, 48 hours
Excerpt: (§1) FIG. 17: Assay of SU056 in NCI-60 cell line panel.

HCT-15 = assay: NCI-60 cell line panel; assay type: cell-based; details: Homo sapiens, 48 hours
Excerpt: as §1

HL-60(TB) = assay: NCI-60 cell line panel; assay type: cell-based; details: Homo sapiens, 48 hours
Excerpt: as §1

KM12 = assay: NCI-60 cell line panel; assay type: cell-based; details: Homo sapiens, 48 hours
Excerpt: as §1

M14 = assay: NCI-60 cell line panel; assay type: cell-based; details: Homo sapiens, 48 hours
Excerpt: as §1

MCF7 = assay: NCI-60 cell line panel; assay type: cell-based; details: Homo sapiens, 48 hours
Excerpt: as §1

NCI-H23 = assay: NCI-60 cell line panel; assay type: cell-based; details: Homo sapiens, 48 hours
Excerpt: as §1

RXF 393 = assay: NCI-60 cell line panel; assay type: cell-based; details: Homo sapiens, 48 hours
Excerpt: as §1

SF-295 = assay: NCI-60 cell line panel; assay type: cell-based; details: Homo sapiens, 48 hours
Excerpt: as §1

SF-539 = assay: NCI-60 cell line panel; assay type: cell-based; details: Homo sapiens, 48 hours
Excerpt: as §1

SK-OV-3 = assay: NCI-60 cell line panel; assay type: cell-based; details: Homo sapiens, 48 hours
Excerpt: as §1

UACC-62 = assay: NCI-60 cell line panel; assay type: cell-based; details: Homo sapiens, 48 hours
Excerpt: as §1

YB-1 = YB-1 (Homo sapiens, UniProt P67809); assay: Pulldown assay using biotinylated SU056; details: OVCAR8 cells and protein lysate
YB-1, sequence (P67809 whole entry): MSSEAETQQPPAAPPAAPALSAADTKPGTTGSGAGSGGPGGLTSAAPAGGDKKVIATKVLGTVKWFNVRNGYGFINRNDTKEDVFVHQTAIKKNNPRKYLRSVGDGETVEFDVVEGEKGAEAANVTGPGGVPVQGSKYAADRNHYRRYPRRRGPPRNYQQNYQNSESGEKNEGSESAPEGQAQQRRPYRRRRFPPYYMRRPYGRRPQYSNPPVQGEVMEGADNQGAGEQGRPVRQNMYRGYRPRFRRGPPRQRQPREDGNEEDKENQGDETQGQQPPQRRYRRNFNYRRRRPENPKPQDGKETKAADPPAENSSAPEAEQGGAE
Description: Pulldown assay using biotinylated SU056: protein pulldown assay was performed using biotinylated SU056. […] Pulldown from cells: OVCAR8 cells were treated with 2.5 μM biotinylated SU056 for 1.5 h. Treated cells were collected and lysed using M-PER™ lysis solution (Thermo Scientific, #78503), supplemented with Halt protease and phosphatase inhibitor cocktail (Thermo Scientific, #78440). 300 μg protein was incubated with magnetic conjugate streptavidin bead (CST, #5947) at 4° C. on rocker overnight. […] Pulldown from cell lysates: OVCAR8 cells were collected and lysed using M-PER™ lysis solution (Thermo Scientific, #78503), supplemented with Halt protease and phosphatase inhibitor cocktail (Thermo Scientific, #78440). 1000 μg protein was incubated with 10 μM biotinylated SU056 at 4° C. on rocker overnight followed by overnight incubation with magnetic conjugate streptavidin bead (CST, #5947) at 4° C. After both the pulldown, biotin-streptavidin conjugates were pulldown and washed using magnetic rack. After three washing, beads were resuspended in 2×SDS sample buffer followed by heating at 90-100° C. for 5 min. Samples were resolved and probed with GBP1 (Abnova, #H00002633-PW1, 1:2000) and YB-1 (CST, #8475; 1:2000) as described above in immunoblotting. […]

For O=C1OCC2=C1C(c1cccc(F)c1)c1cc3c(cc1N2CCO)OCO3 (stereo not shown) [SU056, 9-(3-fluorophenyl)-5-(2-hydroxyethyl)-6,9-dihydro-[1,3]dioxolo[4,5-g]furo[3,4-b]quinolin-8(5H)-one], the “decrease of IC50 compared to SU093” value [1] was “up to 2 fold”, the “decrease in MDR expression” value [2] was 41-63% and the “tumor xenograft growth, TNBC models” value [3] was “inhibit tumor xenograft of TNBC models”. The pIC50 (EKVX) was 5.52, the pIC50 (HCT-15) was 5.97 and the pIC50 (HL-60(TB)) was 5.90. The pIC50 (KM12) was 5.83, the pIC50 (M14) was 6.45 and the pIC50 (MCF7) was 5.84. It also gave a pIC50 (NCI-H23) of 5.40, a pIC50 (RXF 393) of 5.82 and a pIC50 (SF-295) of 5.92. The pIC50 (SF-539) was 5.95, the pIC50 (SK-OV-3) was 5.76 and the pIC50 (UACC-62) was 5.65. The “physical interaction with YB-1 (pulldown)” value (YB-1) was “physically interacts with YB-1”.
